The target of one assay is T1, OGFOD1 (Homo sapiens, UniProt Q8N543).
T1 construct: made in house
T1 sequence (Q8N543 1-542): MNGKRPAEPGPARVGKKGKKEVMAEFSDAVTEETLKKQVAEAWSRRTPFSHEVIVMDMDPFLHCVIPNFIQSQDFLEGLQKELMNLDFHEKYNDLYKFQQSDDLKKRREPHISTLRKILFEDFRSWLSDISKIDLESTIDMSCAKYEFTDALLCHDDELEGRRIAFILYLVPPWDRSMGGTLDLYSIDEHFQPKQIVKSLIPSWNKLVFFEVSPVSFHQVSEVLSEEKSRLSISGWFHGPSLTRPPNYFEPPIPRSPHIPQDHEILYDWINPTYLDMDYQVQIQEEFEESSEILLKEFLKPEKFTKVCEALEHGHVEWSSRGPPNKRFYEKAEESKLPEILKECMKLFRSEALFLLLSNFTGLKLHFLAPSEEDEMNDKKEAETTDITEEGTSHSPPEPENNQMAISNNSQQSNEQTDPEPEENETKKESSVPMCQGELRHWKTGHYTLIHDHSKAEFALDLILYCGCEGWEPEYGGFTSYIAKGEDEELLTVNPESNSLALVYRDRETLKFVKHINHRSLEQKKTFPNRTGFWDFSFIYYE
The experiment in a line: MALDI-TOF MS OGFOD1 hydroxylation assay. It counts as biochemical. On the procedure:
MALDI-TOF MS OGFOD1 hydroxylation assays
Recombinant human OGFOD1 was prepared as reported,11 and stored at -80 °C in 50 mM HEPES (pH 7.5), 150 mM NaCl, 1 mM DTT and 5% (w/v) glycerol after purification with immobilized metal affinity chromatography. Activity assays were performed by determining the extent of hydroxylation of a 20-residue fragment of human RPS23 containing amino acid […]
residues 51-70 (H2N-[…]-CONH2) by matrix-assisted laser desorption/ionisation time-of-flight mass spectrometry (MALDI-TOF MS) using a Waters® Micromass® MALDI micro MX™ mass spectrometer and MassLynx™ 4.1 as described 12.
The optimised hydroxylation assay involved incubation of OGFOD1 (1 μM) with inhibitor (1 % v/v in DMSO) in the presence of Fe(II) (50 μM), 2OG (25 μM), L-ascorbic acid (100 μM) and RPS2351-70 (25 μM) in HEPES (50 mM, pH 7.5) at 37 °C for 15 min. Reagent solution were made as previously reported. (64) Reactions were quenched with formic acid (1 % v/v).
Samples were prepared by mixing reaction mixture (1 μL) with α-cyano-4-hydrocinnamic acid (CHCA) solution (water:acetonitrile 1:1) (1 μL). Dose-response was assessed in 8-point triplicates. Data were analysed using GraphPad Prism 5.04. […]
Fig. S12. In vitro OGFOD1 selectivity profiling of PHD inhibitors. Inhibition of PHD inhibitors against human OGFOD1 as assayed by MALDI11,13 -TOF MS (the protocol is described in the Supplemental Materials and Methods section). No enzyme and DMSO controls were used for the normalisation of RPS23 peptide hydroxylation. Eight concentrations were used to obtained dose-response curve for each compound. Data points presented in the graph are means with standard deviation, n=3. IC50 values (listed in Table 2) were calculated using GraphPad […]
(1 picture or pasted object on this page, not shown here)

The next assay deals with JARID1B (KDM5B) (Homo sapiens, UniProt Q9UGL1). Description: AlphaScreen histone demethylase assay. It counts as biochemical.
The mark [1] stands for this setting: isolated recombinant enzyme, 1 μM, read-out: IC50 OGFOD1.

pIC50: −log10 of the molar value. Where two headings read alike, the source gives them in different places.

JARID1B (KDM5B), sequence (Q9UGL1 whole entry): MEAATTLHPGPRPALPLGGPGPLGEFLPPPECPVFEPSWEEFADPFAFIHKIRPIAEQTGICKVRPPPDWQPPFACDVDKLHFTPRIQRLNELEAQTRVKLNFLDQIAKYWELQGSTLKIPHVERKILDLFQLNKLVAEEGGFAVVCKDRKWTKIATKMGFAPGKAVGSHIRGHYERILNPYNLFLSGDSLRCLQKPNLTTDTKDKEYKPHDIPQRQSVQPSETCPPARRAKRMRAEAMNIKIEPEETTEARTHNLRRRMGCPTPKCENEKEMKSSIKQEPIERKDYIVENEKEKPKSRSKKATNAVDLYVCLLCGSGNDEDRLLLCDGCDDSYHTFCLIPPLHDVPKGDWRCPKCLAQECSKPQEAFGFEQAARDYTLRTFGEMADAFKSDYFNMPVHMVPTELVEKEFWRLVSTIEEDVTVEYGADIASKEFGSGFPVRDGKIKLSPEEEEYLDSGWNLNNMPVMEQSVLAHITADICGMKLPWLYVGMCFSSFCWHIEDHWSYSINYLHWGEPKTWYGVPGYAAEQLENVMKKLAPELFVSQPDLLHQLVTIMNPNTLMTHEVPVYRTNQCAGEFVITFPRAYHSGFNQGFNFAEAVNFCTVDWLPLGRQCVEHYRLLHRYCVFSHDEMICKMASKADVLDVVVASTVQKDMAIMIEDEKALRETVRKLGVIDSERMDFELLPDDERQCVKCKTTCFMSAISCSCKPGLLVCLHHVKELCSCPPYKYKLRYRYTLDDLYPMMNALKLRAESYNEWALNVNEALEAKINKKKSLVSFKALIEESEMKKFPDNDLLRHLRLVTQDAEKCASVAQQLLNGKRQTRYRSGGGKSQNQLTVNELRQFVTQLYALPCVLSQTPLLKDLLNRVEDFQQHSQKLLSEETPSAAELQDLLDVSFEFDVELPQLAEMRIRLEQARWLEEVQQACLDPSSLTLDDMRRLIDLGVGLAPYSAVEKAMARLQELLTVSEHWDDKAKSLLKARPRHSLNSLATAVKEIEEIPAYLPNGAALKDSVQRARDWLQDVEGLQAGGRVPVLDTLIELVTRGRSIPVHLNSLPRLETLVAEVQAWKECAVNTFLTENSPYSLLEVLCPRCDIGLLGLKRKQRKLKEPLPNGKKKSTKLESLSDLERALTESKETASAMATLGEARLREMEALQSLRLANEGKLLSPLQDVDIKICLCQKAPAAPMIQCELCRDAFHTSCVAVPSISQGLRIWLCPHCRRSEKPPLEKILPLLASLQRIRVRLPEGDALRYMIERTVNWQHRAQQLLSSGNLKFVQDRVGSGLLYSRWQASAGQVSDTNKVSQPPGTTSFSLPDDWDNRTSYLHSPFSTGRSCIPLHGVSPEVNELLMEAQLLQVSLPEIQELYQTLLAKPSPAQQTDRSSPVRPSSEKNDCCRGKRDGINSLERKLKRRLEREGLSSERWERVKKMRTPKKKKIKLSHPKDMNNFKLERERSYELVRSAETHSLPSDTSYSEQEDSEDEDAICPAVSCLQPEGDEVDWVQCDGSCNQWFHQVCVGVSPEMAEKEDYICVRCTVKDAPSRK

As to `O=C(O)CNC(=O)C1C(=O)N(C2CCCCC2)C(=O)N(C2CCCCC2)C1=O` [GSK1278863], the pIC50 was 5.68 against OGFOD1 and below 4.00 against JARID1B (KDM5B).

With `O=c1c(-n2ccnn2)c[nH]n1-c1cc(N2CCOCC2)ncn1` [Molidustat], the negative-log IC50 (pIC50) was 5.29 at OGFOD1 (setting [1]) and below 4.00 at JARID1B (KDM5B) (read-out: IC50 JARID1B (KDM5B)).

Consider `O=C(O)CNC(=O)c1ncc(-c2cccc(Cl)c2)cc1O` [Vadadustat], for which the pIC50 at OGFOD1 (setting [1]) is 5.85; on JARID1B (KDM5B) (read-out: IC50 JARID1B (KDM5B)) it was 4.52.

Regarding `CC(C)(C)OC(=O)c1ccc(-n2[nH]cc(-n3ccnn3)c2=O)nc1` [IOX4], the pIC50 at OGFOD1 (setting [1]) was above 6.00; on JARID1B (KDM5B) (read-out: IC50 JARID1B (KDM5B)) it was 4.06.

Consider `Cc1nc(C(=O)NCC(=O)O)c(O)c2ccc(Oc3ccccc3)cc12` [FG-4592], for which the pIC50 at OGFOD1 (setting [1]) is above 6.00; at JARID1B (KDM5B) (read-out: IC50 JARID1B (KDM5B)), below 4.00.

(Values after PMC5802278, “Molecular and cellular mechanisms of HIF prolyl hydroxylase inhibitors in clinical trials” (Chemical Science, 2017).)
